Laboratory results taken from paper PMC8401859 (Molecules, 2021).
pIC50, pKi: −log10 of the molar value. Where two headings read alike, the source gives them in different places. Blank lines part the entries; values can stand above or below the compound they belong to.

Columns and labels:
6×His-CK1δ = 6×His-CK1δ (Homo sapiens, UniProt P48730); assay: radiometric in vitro kinase reaction, 6×His-CK1δ, phosphate incorporation into α-casein
Description: (§1) All in vitro kinase reactions were performed at 30 °C in a total volume of 15 µL containing 25 mM Tris-HCl (pH 7.0), 10 mM MgCl2, 100 µM EDTA and 0.4 pmol [γ-^32P]-ATP. […] GST- or 6×His-tagged CK1δ or CK1ε were used as enzymes in 7, 70 or 335 nM concentration. Additionally, a reaction without enzyme was performed and used to determine the background signal specifying the minimal usable enzyme concentration (signal to background ratio ≥10). Reactions were stopped by adding 3 µL of 5× SDS loading buffer and boiling at 95 °C for 5 min. Proteins were separated by SDS-PAGE and stained with Coomassie Brilliant Blue R250 (Waldeck GmbH & Co. KG, Muenster, Germany). Radioactively labelled proteins were visualized by autoradiography. For quantification, phosphorylated proteins were excised from dried gels and phosphate incorporation was measured via Cherenkov counting.
(§2) Raw data was used to calculate enzyme velocity (V) (phosphate transfer per min). V was plotted over ATP concentration and fitted to the Michaelis-Menten model using GraphPad Prism 7 (GraphPad Software, La Jolla, CA, USA). Km was calculated as the concentration of substrate needed to get half-maximal velocity. In order to determine IC50 values, raw data was transformed from initially measured cpm values to pmol of transferred phosphate. Subsequently data was transformed logarithmically (X = log(X)), normalized to DMSO (100%) and zero (0%) and finally fit to sigmoidal dose-response curves (variable slope) with nonlinear regression using GraphPad Prism 7.

GST-CK1δ = GST-CK1δ (Homo sapiens, UniProt P48730); assay: radiometric in vitro kinase reaction, GST-CK1δ, phosphate incorporation into α-casein
Description: as §1, §2

CK1δ of yeast origin = details: Working Group B, ATP 100 µM; cited from earlier work
CK1δ(1–294) = details: Working Group A, ATP 20 µM; cited from earlier work
CK1δ [1] = details: Working Group A, ATP 10 µM; cited from earlier work
CK1δ [2] = tested on: CK1δ; design: method as in PMID 31817920; details: ATP 10 µM, read-out: IC50 in Literature; cited from earlier work
CK1εΔ319 = tested on: CK1εΔ319; design: method as in PMID 17502429; details: Working Group A, CK1εΔ319, ATP 5 µM; cited from earlier work
untagged CK1δ = tested on: untagged CK1δ; design: method as in PMID 19458106; details: CK1-specific peptide substrate, ATP 10 µM, luminescence-based, read-out: IC50 in Literature; cited from earlier work
6×His-CK1ε [3] = tested on: 6×His-CK1ε; design: method as in PMID 19458106; details: Working Group B, ATP 10 µM; cited from earlier work
6×His-CK1ε [4] = biological target: T1, 6×His-CK1ε (Homo sapiens, UniProt P49674); assay: radiometric in vitro kinase reaction, 6×His-CK1ε, phosphate incorporation into α-casein; format: biochemical
T1 construct: made in house
T1 sequence (P49674 whole entry): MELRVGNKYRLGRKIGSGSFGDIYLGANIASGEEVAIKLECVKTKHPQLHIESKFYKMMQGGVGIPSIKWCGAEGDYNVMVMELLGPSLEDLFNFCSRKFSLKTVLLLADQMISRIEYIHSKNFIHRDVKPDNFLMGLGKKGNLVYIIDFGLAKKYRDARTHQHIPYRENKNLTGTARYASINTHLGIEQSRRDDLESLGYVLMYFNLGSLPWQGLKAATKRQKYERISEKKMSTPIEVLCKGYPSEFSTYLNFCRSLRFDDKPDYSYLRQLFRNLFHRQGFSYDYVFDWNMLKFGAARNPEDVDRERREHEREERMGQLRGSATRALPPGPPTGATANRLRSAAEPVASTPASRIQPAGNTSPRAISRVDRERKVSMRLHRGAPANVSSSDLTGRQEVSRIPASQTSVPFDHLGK
Description: as §1
Raw data was used to calculate enzyme velocity (V) (phosphate transfer per min). V was plotted over ATP concentration and fitted to the Michaelis-Menten model using GraphPad Prism 7 (GraphPad Software, La Jolla, CA, USA). Km was calculated as the concentration of substrate needed to get half-maximal velocity. In order to determine IC50 values, raw data was transformed from initially measured cpm values to pmol of transferred phosphate. […]

Chain of GST-CK1δ (P48730 whole entry): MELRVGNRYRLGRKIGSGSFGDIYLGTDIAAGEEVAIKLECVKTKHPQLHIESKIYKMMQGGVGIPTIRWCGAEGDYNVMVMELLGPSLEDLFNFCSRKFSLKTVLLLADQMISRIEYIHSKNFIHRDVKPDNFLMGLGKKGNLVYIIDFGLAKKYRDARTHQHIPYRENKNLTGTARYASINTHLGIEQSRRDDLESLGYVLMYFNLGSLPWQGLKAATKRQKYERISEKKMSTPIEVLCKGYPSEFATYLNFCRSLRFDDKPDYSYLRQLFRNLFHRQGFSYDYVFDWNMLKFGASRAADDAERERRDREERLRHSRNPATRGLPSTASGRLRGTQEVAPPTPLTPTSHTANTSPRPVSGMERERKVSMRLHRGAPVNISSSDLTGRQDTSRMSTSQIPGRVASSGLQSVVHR
Chain of 6×His-CK1δ (P48730 whole entry): as above

Km (6×His-CK1δ; read-out: Km (ATP), 6×His-CK1δ 70 nM, 10 min, ATP 0.5 to 100 µM, Michaelis-Menten): 14 µM | Km (GST-CK1δ; read-out: Km (ATP), GST-CK1δ 7 nM, 10 min, ATP 0.5 to 100 µM, Michaelis-Menten): 6 µM
Compound: Nc1ncnc2c1ncn2[C@@H]1O[C@H](COP(=O)(O)OP(=O)(O)OP(=O)(O)O)[C@@H](O)[C@H]1O [ATP]

Compound: NC(=O)c1ccc(-c2nc(-c3ccc4c(c3)OCCO4)c(-c3ccccn3)[nH]2)cc1 [D4476]
pIC50 (CK1δ of yeast origin): 6.70 | pIC50 (CK1δ(1–294)): 6.52

Compound: COc1cc(OC)c(C=C2C(O)=Nc3ccccc32)c(OC)c1 [IC261]
pIC50 (CK1δ of yeast origin): 5.60 | pIC50 (CK1δ [1]): 6.00

pIC50 (6×His-CK1δ; 6×His-CK1δ 70 nM, 10 min, ATP equal to Km (ATP) 14 µM, α-casein 10 µM, 30 °C): 6.39 | pKi (6×His-CK1δ; read-out: Kic, 6×His-CK1δ, Kic = IC50/2 (Cheng-Prusoff, ATP = Km)): 6.70 | pIC50 (GST-CK1δ; GST-CK1δ 7 nM, 10 min, ATP equal to Km (ATP) 6 µM, α-casein 10 µM, 30 °C): 6.40 | pKi (GST-CK1δ; read-out: Kic, GST-CK1δ, Kic = IC50/2 (Cheng-Prusoff, ATP = Km)): 6.70
Compound: O=C(Nc1nc2ccc(C(F)(F)F)cc2s1)Sc1nccc(=O)n1Cc1ccc(OC(F)(F)F)cc1 [Liu-20]
pIC50 (CK1δ [2]): 7.07

Compound: Nc1nccc(-c2c(-c3ccc(F)cc3)ncn2C2CCCCC2)n1 [PF-670462]
pIC50 (CK1εΔ319): 8.10 | pIC50 (untagged CK1δ): 7.89 | pIC50 (6×His-CK1ε [3]): 7.10

pIC50 (6×His-CK1ε [4]): 7.14 | pKi (6×His-CK1ε [4]; 6×His-CK1ε, Kic = IC50/2 (Cheng-Prusoff, ATP = Km)): 7.44
Compound: Nc1ncnc2c1c(COc1cccc(Cl)c1)nn2C1CCOCC1 [PF-4800567]
